We go through eight compounds from patent publication US6680333B2, “Imidazolidine derivatives, their preparation, their use and pharmaceutical preparations comprising them” (Aventis Pharma Deutschland GmbH, priority 2001, dated 2004).

Where a name gives a salt, the structure may show the parent alone.

In the assay the target is T1, adhesion of U937 cells (VLA-4) to hVCAM-1(1-3)-IgG (Homo sapiens, UniProt P05556+P13612).
T1 construct: the VLA-4 integrins, are supplied in their natural form as surface molecules on human U937 cells; host or cells: Human U937 cells carry endogenous VLA-4; The partner hVCAM-1(1-3)-IgG was made in transfected COS cells (ATCC CRL1651) and used as culture supernatant
T1 sequence (P13612 34-1032): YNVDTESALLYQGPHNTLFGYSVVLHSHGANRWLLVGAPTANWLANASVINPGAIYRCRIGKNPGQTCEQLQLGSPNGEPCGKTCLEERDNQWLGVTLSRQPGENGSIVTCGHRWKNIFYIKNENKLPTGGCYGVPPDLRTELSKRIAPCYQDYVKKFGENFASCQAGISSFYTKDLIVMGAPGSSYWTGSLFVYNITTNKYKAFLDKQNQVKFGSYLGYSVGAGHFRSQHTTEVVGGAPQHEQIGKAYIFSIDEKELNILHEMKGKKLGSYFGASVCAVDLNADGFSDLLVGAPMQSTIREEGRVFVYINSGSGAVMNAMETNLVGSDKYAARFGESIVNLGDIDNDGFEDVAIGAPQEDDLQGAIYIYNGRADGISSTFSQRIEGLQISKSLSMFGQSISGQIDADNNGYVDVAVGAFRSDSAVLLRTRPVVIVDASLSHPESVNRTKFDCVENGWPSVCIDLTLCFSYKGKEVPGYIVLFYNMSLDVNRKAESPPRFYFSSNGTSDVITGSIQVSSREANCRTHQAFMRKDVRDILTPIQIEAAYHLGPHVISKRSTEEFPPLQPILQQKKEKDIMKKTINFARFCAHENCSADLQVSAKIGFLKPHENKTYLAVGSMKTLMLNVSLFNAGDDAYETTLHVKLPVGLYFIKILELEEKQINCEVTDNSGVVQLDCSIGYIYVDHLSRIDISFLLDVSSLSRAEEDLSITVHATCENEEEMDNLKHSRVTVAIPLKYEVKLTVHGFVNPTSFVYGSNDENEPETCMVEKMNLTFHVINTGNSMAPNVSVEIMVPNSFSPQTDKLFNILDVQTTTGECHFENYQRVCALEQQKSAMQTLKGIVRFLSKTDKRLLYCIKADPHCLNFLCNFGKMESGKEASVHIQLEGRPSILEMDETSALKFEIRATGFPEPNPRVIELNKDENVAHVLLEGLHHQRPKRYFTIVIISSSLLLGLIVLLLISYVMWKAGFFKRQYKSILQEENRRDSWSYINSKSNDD
T1 sequence (P05556 21-798): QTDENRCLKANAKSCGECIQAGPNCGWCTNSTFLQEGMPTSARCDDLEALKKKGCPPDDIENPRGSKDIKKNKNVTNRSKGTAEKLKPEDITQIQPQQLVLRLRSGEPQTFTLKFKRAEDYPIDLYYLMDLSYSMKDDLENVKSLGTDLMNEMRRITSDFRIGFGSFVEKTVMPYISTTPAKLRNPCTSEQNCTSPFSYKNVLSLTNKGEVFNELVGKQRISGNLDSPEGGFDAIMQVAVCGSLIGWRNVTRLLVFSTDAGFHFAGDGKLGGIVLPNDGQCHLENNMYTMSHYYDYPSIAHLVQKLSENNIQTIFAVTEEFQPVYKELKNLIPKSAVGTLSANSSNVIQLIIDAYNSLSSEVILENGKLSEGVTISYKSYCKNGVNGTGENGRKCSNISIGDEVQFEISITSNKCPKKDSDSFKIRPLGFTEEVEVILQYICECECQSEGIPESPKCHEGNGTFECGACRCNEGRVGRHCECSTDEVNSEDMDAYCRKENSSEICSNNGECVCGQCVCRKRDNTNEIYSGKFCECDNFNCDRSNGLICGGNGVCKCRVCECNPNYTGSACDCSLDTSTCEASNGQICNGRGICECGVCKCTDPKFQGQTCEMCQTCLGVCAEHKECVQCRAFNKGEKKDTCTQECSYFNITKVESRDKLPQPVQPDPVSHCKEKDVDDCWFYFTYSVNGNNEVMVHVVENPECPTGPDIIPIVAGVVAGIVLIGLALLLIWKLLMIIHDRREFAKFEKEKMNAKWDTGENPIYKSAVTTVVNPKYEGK
Nature of the assay: U937/VCAM-1 cell adhesion test. Particulars: human U937 cells (ATCC CRL 1593); recombinant hVCAM-1(1-3)-IgG; read-out: IC50 (inhibition of the adhesion of U937 cells to hVCAM-1(1-3)-IgG by 50%). The class given is cell-based. The source says: A) U937/VCAM-1 Cell Adhesion Test
The test method used for the activity of the compounds of formula I on the interaction between VCAM-1 and VLA-4 is the assay described below, which is specific for this interaction. The cellular binding components, i.e., the VLA-4 integrins, are supplied in their natural form as surface molecules on human U937 cells (ATCC CRL 1593), which belong to the leukocytes group. As specific binding components, recombinant soluble fusion proteins prepared by genetic engineering, consisting of the extracytoplasmic domain of human VCAM-1 and the constant region of a human immunoglobulin of subclass IgG1, are used.
Assay for the measurement of the adhesion of U937 cells (ATCC CRL 1593) to hVCAM-1(1-3)-IgG
1. Preparation of Human VCAM-1(1-3)-IgG and Human CD4-IgG
A genetic construct for the expression of the extracellular domain of human VCAM-1, combined with the genetic sequence of the heavy chain of the human immunoglobulin IgG1 (hinge, CH2 and CH3 regions) (from Dr. Brian Seed, Massachusetts General Hospital, Boston, USA; cf. Damle and Aruffo, Proc. Natl. Acad. Sci. USA, 88:6403 (1991)), was employed. The soluble fusion protein hVCAM-1(1-3)-IgG contained the three amino-terminal extracellular immunoglobulin-like domains of human VCAM-1 (Damle and Aruffo, Proc. Natl. Acad. Sci. USA, 88:6403 (1991)). CD4-IgG (Zettlmeissl et al., DNA and Cell Biology, 9:347 (1990)) served as a fusion protein for negative controls. The recombinant proteins were expressed as soluble proteins after DEAE/dextran-mediated DNA transfection in COS cells (ATCC CRL1651) according to standard procedures (Ausubel et al., “Current Protocols in Molecular Biology”, John Wiley & Sons, Inc., 1994).
2. Assay for the Measurement of the Adhesion of U937 Cells to hVCAM-1 (1-3)-IgG
2.1 96 well microtiter test plates (Nunc Maxisorb) were incubated at room temperature for 1 hour with 100 μL/well of a goat anti-human IgG antibody solution (10 μg/mL in 50 mM tris, pH 9.5). After removal of the antibody solution, washing was carried out once with PBS.
2.2 150 μL/well of a blocking buffer (1% BSA in PBS) were incubated on the plates at room temperature for 0.5 hour. After removal of the blocking buffer, washing was carried out once with PBS.
2.3 100 μL per well of a cell culture supernatant of transfected COS cells were incubated on the plates at room temperature for 1.5 hours. The COS cells were transfected with a plasmid which codes for the three N-terminal immunglobulin-like domains of VCAM-1, coupled to the Fc part of human IgG1 (hVCAM-l (1-3)-IgG). The content of hVCAM-1(1-3)-IgG was about 0.5-1 μg/mL. After removal of the culture supernatant, washing was carried out once with PBS.
2.4 The plates were incubated at room temperature for 20 minutes with 100 μL/well of Fc receptor block buffer (1 mg/mL γ-globulin, 100 mM NaCl, 100 μM MgCl2, 100 μM MnCl2, 100 μM CaCl2, 1 mg/mL BSA in 50 mM HEPES, pH 7.5). After removal of the Fc receptor block buffer, washing was carried out once with PBS.
2.5 20 μL of binding buffer (100 mM NaCl, 100 μM MgCl2, 100 μM MnCl2, 100 μM CaCl2, 1 mg/mL BSA in 50 mM HEPES, pH 7.5) were introduced, the substances to be tested were added in 10 μL of binding buffer and incubation was carried out for 20 minutes. Antibodies against VCAM-1 (BBT, No. BBA6) and against VLA-4 (Immunotech, No. 0764) served as controls.
2.6 U937 cells were incubated for 20 minutes in Fc receptor block buffer and then added by pipette in a concentration of 1×10^6/mL and in an amount of 100 μL per well (final volume […]).
2.7 The plates were slowly immersed at an angle of 45° in stop buffer (100 mM NaCl, 100 μM MgCl2, […], 100 μM CaCl2 in 25 mM tris, pH 7.5) and shaken off. The process was repeated.
2.8 50 μL/well of a dye solution (16.7 μg/mL of Hoechst dye 33258, 4% formaldehyde, 0.5% Triton X-100 in PBS) were then incubated on the plates for 15 minutes. […]
Turning to `COc1cc(CN2C(=O)N([C@@H](CC3CC3)C(=O)N[C@H](C)CC(=O)O)C(=O)C2(C)C)ccc1NC(=O)Nc1ccccc1C` [Example 1, (R)-3-((S)-2-(4,4-Dimethyl-3-(4-(3-(2-methylphenyl)ureido)-3-methoxybenzyl)-2,5-dioxoimidazolidin-1-yl)-2-(cyclopropylmethyl)acetylamino)-3-methylpropionic Acid], the half-inhibitory concentration (IC50) (as a rule, the concentration that inhibits the measured activity by half) worked out at 0.3 nM.

Take `COc1cc(CN2C(=O)N([C@@H](CC3CC3)C(=O)N[C@@H](CC(=O)O)c3ccccc3)C(=O)C2(C(F)(F)F)C(F)(F)F)ccc1NC(=O)Nc1ccccc1C` [Example 19, (S)-3-((S)-2-(4,4-Bis(trifluoromethyl)-3-(4-(3-(2-methylphenyl)ureido)-3-methoxybenzyl)-2,5-dioxoimidazolidin-1-yl)-2-(cyclopropylmethyl)acetylamino)-3-phenylpropionic Acid]: the half-inhibitory concentration (IC50) amounted to 4.4 nM.

For `COc1cc(CN2C(=O)N([C@@H](CC3CC3)C(=O)N[C@H](C)CC(=O)O)C(=O)C2(C)C)ccc1NC(=O)Nc1ccccc1` [Example 7, (R)-3-((S)-2-(4,4-Dimethyl-3-(4-(3-phenylureido)-3-methoxybenzyl)-2,5-dioxoimidazolidin-1-yl)-2-(cyclopropylmethyl)acetylamino)-3-methylpropionic Acid], the IC50 was determined as 2.1 nM.

With `COc1cc(CN2C(=O)N([C@@H](CC3CC3)C(=O)NC(CC(=O)O)c3ccncc3)C(=O)C2(C)C)ccc1NC(=O)Nc1ccccc1C` (stereo partly drawn) [Example 13, 3-((S)-2-(4,4-Dimethyl-3-(4-(3-(2-methylphenyl)ureido)-3-methoxybenzyl)-2,5-dioxoimidazolidin-1-yl)-2-(cyclopropylmethyl)acetylamino)-3-(4-pyridyl)propionic Acid Hydrochloride], the IC50 was determined as 1.8 nM.

On to `COc1cc(CN2C(=O)N([C@@H](CC3CC3)C(=O)NC(CC(=O)O)c3ccccn3)C(=O)C2(C)C)ccc1NC(=O)Nc1ccccc1C` (stereo partly drawn) [Example 16, 3-((S)-2-(4,4-Dimethyl-3-(4-(3-(2-methylphenyl)ureido)-3-methoxybenzyl)-2,5-dioxoimidazolidin-1-yl)-2-(cyclopropylmethyl)acetylamino)-3-(2-pyridyl)propionic Acid], for which the IC50 was 0.9 nM.

As to `COc1cc(CN2C(=O)N([C@@H](CC3CC3)C(=O)NC(CC(=O)O)c3cccnc3)C(=O)C2(C)C)ccc1NC(=O)Nc1ccccc1C` (stereo partly drawn) [Example 10, 3-((S)-2-(4,4-Dimethyl-3-(4-(3-(2-methylphenyl)ureido)-3-methoxybenzyl)-2,5-dioxoimidazolidin-1-yl)-2-(cyclopropylmethyl)acetylamino)-3-(3-pyridyl)propionic Acid Hydrochloride], the IC50 came out at 0.6 nM.

Take `Cc1ccccc1NC(=O)Nc1ccc(CN2C(=O)N([C@@H](CC3CC3)C(=O)N[C@H](C)CC(=O)O)C(=O)C2(C)C)cc1O` [Example 5, (R)-3-((S)-2-(4,4-Dimethyl-3-(4-(3-(2-methylphenyl)ureido)-3-hydroxybenzyl)-2,5-dioxoimidazolidin-1-yl)-2-(cyclopropylmethyl)acetylamino)-3-methylpropionic Acid]: the IC50 stood at 25.9 nM.

With `COc1cc(CN2C(=O)N([C@@H](CC3CC3)C(=O)N[C@H](C)CC(=O)O)C(=O)C2(C)C)ccc1NC(=O)Nc1ccccc1C` [Example 2], the IC50 is 0.5 nM.
